In ChEMBL document CHEMBL1201862, “PubChem BioAssay data set” (2004):
Counter-ions that a name gives are not always drawn. Activity calls are given as the source filed them.

Tests used:
[1] = luciferase reporter signal suppression in cells – H4 neuroglioma cells, luminescence, dose response (AID 1990); format: functional, cell-based
[2] = Luminescence Cell-Based Dose Response HTS to Identify Inhibitors of 5'UTR Stem-Loop Driven Prion Protein mRNA Translation in H4 Neuroglioblastoma Cells. [Related pubchem assays: 1827 (Project Summary), 1813 (Primary HTS)]; format: functional
[3] = alpha-synuclein stem-loop luciferase translation blockers – H4 neuroglioma cells, luminescence, confirmation (AID 1988); format: functional, cell-based
Melanocortin receptor 4 = Melanocortin receptor 4 (Homo sapiens, UniProt P32245); experiment: inhibitors of MC4R cAMP signaling – cell-based, TR-FRET, biased antagonists, dose response (AID 602298); format: functional;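 also: antagonist potency against agonist-stimulated cAMP production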
[4] = cAMP pathway inhibition in counterscreen cell line – TR-FRET cAMP detection, counter-screen for MC4R biased antagonist project, dose response (AID 602305); format: functional, cell-based;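 also: U2OS cells stimulated with forskolin near its EC80 as the cAMP inducer; potency is for inhibition of forskolin-stimulated cAMP signaling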
Beta-galactosidase = Beta-galactosidase (Escherichia coli, UniProt Q8VNN2); experiment: PubChem AID 485352; format: functional
[5] = target: Luciferin 4-monooxygenase (Photinus pyralis, UniProt P08659); experiment: inhibition of purified Photinus pyralis luciferase – biochemical, luminescence, dose response (AID 1891)
[6] = Luminescence Cell-Based Dose Confirmation HTS to Identify Inhibitors of Platelet Dense Granule Release. [Related pubchem assays: 1663 (Primary HTS), 1678 (Summary of Project)]; format: functional
[7] = target: T1, Type-1 angiotensin II receptor (Homo sapiens, UniProt P30556); experiment: antagonism of angiotensin II type 1 receptor – cell-based, uHTS hits, selectivity assay for APJ receptor antagonist project, dose response (AID 463214); format: functional;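 also: antagonist potency against angiotensin II stimulated AT1 response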
T1 sequence (P30556 whole entry): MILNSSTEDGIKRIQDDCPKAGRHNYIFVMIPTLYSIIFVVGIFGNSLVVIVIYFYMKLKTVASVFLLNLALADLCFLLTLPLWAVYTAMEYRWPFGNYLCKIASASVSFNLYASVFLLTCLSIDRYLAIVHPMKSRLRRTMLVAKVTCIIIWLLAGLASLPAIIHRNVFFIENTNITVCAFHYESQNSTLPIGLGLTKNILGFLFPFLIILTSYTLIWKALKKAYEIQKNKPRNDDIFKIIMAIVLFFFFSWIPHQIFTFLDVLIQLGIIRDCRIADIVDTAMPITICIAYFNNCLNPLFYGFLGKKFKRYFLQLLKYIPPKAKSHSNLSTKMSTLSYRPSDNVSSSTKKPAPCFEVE

[8] = target: SWI/SNF-related matrix-associated actin-dependent regulator of chromatin subfamily A member 2 (Homo sapiens, UniProt P51531); experiment: Luminescence-based cell-based high throughput dose response assay to identify activators of the function of SWI/SNF related, matrix associated, actin dependent regulator of chromatin, subfamily a, member 2 (SMARCA2, BRM).; format: functional
[9] = Counterscreen for activators of the function of SWI/SNF related, matrix associated, actin dependent regulator of chromatin, subfamily a, member 2 (SMARCA2, BRM): Luminescence-based cell-based high throughput dose response assay to identify non-selective compounds using the VP16 reporter assay.; format: functional
Protein Wnt-3a = Protein Wnt-3a (Mus musculus, UniProt P27467); experiment: antagonism of Wnt3a pathway luciferase reporter – Wnt-LIGHT cells, luminescence, selectivity assay for Gli-SUFU antagonist project, dose response (AID 651570); format: functional; details: read-out: IC50_Mean;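 also: Wnt-LIGHT reporter cells stimulated with conditioned medium from Wnt3a-producing cells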
[10] = Luminescence Cell-Based Dose Retest to Confirm Inhibitors of Cancer Stem Cells. [Related pubchem assays (depositor defined):AID2717, AID2721]; format: functional; details: Homo sapiens
[11] = target: Photoreceptor-specific nuclear receptor (Homo sapiens, UniProt Q9Y5X4); format: functional, cell-based;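 also: CHO-S cells with Gal4-NCOR and VP16-NR2E3 two-hybrid luciferase reporter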
[12] = target: Adenosylmethionine-8-amino-7-oxononanoate aminotransferase (Mycobacterium tuberculosis, UniProt P9WQ81); experiment: Mycobacterium tuberculosis BioA enzyme inhibitor Measured in Biochemical System Using Plate Reader - 2163-02_Inhibitor_Dose_CherryPick_Activity.; format: functional, Mycobacterium tuberculosis UT205
[13] = bead-based luminescence quenchers, dual-tagged ARNT – biochemical, AlphaScreen, cherry-pick, artefact control for ARNT-TACC3 interaction inhibitor project, dose response (AID 651705); format: functional;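 also: AlphaScreen bead proximity signal that flags compounds interfering with the detection technology; potency reflects signal decrease which marks the compound as an assay artifact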
Large T antigen = Large T antigen (Simian virus 40, UniProt P03070); format: functional, Betapolyomavirus macacae;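 also: Confirmatory-stage PubChem screen for compounds that inhibit SV40 T antigen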
[14] = target: T2, Endoribonuclease toxin MazF (Escherichia coli K-12, UniProt P0AE70); experiment: activation of MazEF endoribonuclease cleavage – biochemical, fluorescence, single-stranded RNA substrate, uHTS hits, dose response (AID 588481); format: functional
T2 sequence (P0AE70 whole entry): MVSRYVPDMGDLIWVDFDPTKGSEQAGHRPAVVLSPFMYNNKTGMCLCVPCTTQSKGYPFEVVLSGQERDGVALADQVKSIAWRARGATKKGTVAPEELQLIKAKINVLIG

[15] = target: T2, Endoribonuclease toxin MazF; experiment: substrate-only fluorescence increase artefacts – biochemical, single-stranded RNase substrate, counter-screen for MazEF activator project, dose response (AID 588502); format: functional
[16] = target: T3, Sentrin-specific protease 1 (Homo sapiens, UniProt Q9P0U3); experiment: SENP1 catalytic domain blockers, concentration series – biochemical, kinetic FRET, dose response (AID 651697); format: functional; details: read-out: IC50_Mean
T3 sequence (Q9P0U3 whole entry): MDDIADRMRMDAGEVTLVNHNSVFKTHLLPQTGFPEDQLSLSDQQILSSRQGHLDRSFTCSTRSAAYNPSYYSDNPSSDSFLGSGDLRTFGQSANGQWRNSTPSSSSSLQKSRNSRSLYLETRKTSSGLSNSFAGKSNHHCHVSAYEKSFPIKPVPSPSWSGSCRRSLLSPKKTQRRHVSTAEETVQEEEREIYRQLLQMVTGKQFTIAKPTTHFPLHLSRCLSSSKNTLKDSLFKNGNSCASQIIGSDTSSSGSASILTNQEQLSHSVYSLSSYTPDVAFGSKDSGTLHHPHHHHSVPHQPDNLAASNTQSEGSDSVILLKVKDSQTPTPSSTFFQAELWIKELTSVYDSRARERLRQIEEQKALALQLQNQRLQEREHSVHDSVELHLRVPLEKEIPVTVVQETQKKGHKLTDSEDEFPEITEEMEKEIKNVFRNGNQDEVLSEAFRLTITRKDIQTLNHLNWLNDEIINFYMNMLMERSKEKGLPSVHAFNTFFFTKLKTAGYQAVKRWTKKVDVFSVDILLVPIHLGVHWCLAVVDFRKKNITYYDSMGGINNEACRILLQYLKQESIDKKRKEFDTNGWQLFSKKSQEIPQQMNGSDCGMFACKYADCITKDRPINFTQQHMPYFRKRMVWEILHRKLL

[17] = target: T3, Sentrin-specific protease 1; experiment: Dose response confirmation of small molecule inhibitors of the catalytic domain of the SUMO protease, SENP1 in a FRET assay.; format: functional; details: read-out: IC50_Mean
HEK293 = experiment: EBV LMP1 TES2 canonical NF-kB signalling blockers – cell-based, HEK293, luciferase, cherry-pick, dose response (AID 588343); format: functional; details: Homo sapiens
[18] = target: T4, Latent membrane protein 1 (Human herpesvirus 4 (strain B95-8), UniProt P03230); experiment: LMP1 TES1 pathway selectivity over dsRED control – imaging, HEK293T, dual-color eGFP/dsRED, cherry-picks, selectivity assay for LMP1 NF-kB inhibitor project, dose response (AID 588398); format: functional, cell-based
T4 sequence (P03230 whole entry): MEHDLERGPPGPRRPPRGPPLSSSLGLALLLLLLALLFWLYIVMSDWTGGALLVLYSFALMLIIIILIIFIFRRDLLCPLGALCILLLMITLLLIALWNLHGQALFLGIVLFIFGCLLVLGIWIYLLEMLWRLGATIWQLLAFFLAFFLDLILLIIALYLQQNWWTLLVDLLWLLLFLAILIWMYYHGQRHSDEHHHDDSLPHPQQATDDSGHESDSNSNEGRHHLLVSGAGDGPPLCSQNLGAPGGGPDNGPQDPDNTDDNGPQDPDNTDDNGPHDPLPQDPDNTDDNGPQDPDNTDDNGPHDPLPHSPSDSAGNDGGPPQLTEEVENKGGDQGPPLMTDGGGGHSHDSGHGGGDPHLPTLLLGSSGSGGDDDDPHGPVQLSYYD

Paired box protein Pax-8 = Paired box protein Pax-8 (Homo sapiens, UniProt Q06710); experiment: PAX8 transcriptional activity inhibition in RMG-I – RMG-I cells, luciferase, cherry-pick, dose response (AID 687027); format: functional, cell-based;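 also: luciferase reporter driven by Pax8 target thyroperoxidase promoter measured by SteadyGlo luminescence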
Sequence of Paired box protein Pax-8 (Q06710 whole entry): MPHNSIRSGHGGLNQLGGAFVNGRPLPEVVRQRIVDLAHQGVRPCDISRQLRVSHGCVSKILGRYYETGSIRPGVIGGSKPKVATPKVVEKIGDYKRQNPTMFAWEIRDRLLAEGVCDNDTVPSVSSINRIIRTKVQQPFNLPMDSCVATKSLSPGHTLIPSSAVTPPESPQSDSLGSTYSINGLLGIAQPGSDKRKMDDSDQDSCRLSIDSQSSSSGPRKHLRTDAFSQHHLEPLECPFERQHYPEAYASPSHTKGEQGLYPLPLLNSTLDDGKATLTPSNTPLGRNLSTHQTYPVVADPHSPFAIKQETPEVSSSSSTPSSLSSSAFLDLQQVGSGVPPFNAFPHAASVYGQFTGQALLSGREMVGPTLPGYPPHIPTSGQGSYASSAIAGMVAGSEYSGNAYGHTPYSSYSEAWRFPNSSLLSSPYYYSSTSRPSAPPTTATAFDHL

Sequence of Beta-galactosidase (Q8VNN2 whole entry): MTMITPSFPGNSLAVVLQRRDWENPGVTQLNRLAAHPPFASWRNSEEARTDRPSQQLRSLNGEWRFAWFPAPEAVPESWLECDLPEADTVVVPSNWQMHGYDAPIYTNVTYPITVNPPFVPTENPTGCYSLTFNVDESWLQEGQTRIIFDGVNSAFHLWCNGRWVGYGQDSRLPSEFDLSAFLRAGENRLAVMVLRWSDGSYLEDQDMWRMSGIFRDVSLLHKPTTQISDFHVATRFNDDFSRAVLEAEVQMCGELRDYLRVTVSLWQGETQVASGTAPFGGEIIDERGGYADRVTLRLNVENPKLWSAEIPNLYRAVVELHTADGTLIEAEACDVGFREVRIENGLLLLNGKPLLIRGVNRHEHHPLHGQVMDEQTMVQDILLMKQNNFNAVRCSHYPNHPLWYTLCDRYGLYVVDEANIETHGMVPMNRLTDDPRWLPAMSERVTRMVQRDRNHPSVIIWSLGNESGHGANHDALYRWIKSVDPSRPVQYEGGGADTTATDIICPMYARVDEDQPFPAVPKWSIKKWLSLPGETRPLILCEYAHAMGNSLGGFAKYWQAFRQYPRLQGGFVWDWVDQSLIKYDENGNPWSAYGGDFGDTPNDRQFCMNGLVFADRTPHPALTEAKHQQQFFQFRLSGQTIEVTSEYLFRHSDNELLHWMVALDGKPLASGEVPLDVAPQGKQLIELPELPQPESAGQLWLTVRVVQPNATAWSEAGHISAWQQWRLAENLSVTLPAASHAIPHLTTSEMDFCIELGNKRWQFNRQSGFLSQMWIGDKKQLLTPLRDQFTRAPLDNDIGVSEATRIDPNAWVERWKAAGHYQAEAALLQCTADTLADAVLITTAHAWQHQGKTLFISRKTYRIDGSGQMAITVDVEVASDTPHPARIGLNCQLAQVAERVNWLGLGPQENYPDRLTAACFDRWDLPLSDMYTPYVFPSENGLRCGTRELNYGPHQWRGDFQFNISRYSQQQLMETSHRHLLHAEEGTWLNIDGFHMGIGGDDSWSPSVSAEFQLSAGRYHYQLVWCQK
Sequence of Melanocortin receptor 4 (P32245 whole entry): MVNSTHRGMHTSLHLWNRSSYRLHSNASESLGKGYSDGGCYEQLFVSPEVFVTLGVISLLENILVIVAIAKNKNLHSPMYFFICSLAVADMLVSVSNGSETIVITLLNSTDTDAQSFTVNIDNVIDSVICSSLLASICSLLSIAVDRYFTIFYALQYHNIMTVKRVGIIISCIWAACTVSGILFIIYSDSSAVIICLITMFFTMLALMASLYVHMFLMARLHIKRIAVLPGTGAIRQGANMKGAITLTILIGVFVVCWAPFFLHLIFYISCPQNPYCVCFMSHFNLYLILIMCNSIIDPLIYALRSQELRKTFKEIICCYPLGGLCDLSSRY
Sequence of Photoreceptor-specific nuclear receptor (Q9Y5X4 whole entry, the tested form may be a part): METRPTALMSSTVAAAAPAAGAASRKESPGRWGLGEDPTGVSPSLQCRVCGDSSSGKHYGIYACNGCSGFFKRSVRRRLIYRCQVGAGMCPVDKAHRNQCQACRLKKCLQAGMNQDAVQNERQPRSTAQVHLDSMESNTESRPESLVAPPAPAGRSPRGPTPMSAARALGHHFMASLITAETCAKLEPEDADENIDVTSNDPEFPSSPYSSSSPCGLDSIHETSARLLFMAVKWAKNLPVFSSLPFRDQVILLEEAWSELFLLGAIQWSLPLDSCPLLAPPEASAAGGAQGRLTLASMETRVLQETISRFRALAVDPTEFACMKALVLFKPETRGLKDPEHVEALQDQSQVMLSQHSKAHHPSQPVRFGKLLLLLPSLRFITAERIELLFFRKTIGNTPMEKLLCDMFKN
Sequence of Adenosylmethionine-8-amino-7-oxononanoate aminotransferase (P9WQ81 whole entry): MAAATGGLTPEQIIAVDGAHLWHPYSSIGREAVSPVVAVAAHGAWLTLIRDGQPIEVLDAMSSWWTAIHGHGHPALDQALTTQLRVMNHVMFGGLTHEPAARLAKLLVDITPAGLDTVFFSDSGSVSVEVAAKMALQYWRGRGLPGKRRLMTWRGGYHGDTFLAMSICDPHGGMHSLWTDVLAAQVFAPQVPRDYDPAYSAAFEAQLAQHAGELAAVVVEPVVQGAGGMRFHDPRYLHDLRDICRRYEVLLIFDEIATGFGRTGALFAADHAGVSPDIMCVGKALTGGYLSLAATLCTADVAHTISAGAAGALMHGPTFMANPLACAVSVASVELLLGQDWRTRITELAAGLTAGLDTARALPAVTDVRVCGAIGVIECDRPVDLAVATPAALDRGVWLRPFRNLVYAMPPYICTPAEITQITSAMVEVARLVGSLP
Sequence of Protein Wnt-3a (P27467 whole entry): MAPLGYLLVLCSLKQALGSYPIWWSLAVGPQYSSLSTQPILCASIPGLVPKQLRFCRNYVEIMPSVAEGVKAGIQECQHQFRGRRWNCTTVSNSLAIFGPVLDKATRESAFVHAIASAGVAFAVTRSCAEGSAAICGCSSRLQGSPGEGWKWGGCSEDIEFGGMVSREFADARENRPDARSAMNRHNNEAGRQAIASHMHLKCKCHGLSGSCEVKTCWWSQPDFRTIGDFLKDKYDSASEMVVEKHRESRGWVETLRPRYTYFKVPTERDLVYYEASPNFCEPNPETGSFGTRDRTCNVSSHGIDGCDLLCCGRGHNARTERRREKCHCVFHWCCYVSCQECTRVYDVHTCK
Sequence of SWI/SNF-related matrix-associated actin-dependent regulator of chromatin subfamily A member 2 (P51531 whole entry): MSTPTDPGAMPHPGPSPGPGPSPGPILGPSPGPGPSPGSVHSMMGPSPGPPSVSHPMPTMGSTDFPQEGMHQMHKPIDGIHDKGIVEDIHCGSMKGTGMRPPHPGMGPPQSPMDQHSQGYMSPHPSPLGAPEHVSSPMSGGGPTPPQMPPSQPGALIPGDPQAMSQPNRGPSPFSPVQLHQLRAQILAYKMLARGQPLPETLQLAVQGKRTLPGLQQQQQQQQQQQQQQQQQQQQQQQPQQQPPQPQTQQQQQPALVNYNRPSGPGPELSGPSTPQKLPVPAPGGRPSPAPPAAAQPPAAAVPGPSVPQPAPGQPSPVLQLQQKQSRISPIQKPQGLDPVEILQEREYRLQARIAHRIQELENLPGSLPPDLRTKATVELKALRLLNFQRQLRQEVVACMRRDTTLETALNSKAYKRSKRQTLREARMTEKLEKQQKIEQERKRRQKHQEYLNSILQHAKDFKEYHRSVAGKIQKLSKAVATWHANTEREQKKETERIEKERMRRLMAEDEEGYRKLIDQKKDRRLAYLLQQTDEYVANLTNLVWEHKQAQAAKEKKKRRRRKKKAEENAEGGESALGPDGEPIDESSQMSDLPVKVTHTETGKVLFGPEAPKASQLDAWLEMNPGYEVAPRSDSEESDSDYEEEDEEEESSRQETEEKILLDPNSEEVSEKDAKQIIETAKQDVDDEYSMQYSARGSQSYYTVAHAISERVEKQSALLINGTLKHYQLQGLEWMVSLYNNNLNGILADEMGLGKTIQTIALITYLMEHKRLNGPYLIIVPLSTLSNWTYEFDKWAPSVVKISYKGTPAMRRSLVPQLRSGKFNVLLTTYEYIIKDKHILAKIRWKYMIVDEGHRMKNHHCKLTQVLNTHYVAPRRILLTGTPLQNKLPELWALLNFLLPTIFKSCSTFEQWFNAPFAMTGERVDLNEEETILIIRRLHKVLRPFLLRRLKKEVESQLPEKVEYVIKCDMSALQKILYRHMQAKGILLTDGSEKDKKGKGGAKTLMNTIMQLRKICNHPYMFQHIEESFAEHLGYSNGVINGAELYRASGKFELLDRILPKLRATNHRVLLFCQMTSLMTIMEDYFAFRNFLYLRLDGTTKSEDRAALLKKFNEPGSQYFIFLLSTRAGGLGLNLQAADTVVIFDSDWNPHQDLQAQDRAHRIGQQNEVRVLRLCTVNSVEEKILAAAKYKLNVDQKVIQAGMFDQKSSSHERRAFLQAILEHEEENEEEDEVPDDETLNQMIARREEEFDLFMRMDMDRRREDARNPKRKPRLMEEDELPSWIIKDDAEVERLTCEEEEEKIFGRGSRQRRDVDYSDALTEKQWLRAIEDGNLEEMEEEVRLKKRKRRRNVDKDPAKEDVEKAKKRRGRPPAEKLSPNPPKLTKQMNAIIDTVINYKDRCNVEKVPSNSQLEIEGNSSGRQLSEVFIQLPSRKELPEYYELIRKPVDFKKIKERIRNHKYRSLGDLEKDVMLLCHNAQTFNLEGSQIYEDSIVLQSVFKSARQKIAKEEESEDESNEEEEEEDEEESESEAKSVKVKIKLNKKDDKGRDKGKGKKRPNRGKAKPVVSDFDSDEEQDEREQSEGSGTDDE

What does the source list for Cc1ccc(C)c(NC(=O)COC(=O)c2cccc3c2C(=O)c2ccccc2C3=O)c1?
EC50 [1]: > 120 µM (not active); EC50 [2]: > 60 µM (not active); EC50 [3]: > 120 µM (not active); IC50 (Melanocortin receptor 4): > 64.6 µM (inactive); IC50 [4]: > 64.6 µM (inactive)

With Brc1ccc(N=Nc2ccc3ccccc3n2)cc1 as the molecule, how does the EC50 [1] read?
The EC50 was 0.107 µM (active).

What about the EC50 (Beta-galactosidase) of the same molecule?
Its EC50 is > 40 µM (inactive).

And the EC50 [3]?
Its EC50 is 0.125 µM (active).

And the EC50 [5]?
The EC50 was 299 nM (active).

And the EC50 [6]?
Its EC50 is 969 nM (active).

What about the IC50 [7] of the same molecule?
The IC50 was > 40 µM (not active).

Which results are given for O=C(CNc1ccc(Br)cc1)c1ccc(Br)s1?
EC50 (Beta-galactosidase): > 40 µM (inactive); IC50 [7]: 14.7 µM (active); EC50 [8]: > 91.1 µM (inactive); EC50 [9]: > 91.1 µM (inactive)

For O=C(C[C@@H]1C/C=C\C[C@H](NC(=O)OCC2c3ccccc3-c3ccccc32)C(=O)OC[C@H]2CCCN2C1=O)N[C@H](CO)Cc1ccccc1, which IC50 (Protein Wnt-3a) is on record?
The IC50 was 8.46 µM (active).

What does the source list for CCCCC[C@@H]1C=C(C(=O)O)[C@H](c2ccc(Cl)c(Cl)c2)N1S(=O)(=O)c1ccc(C)cc1?
AC50 [10]: 4.58 µM (active); IC50 [11]: 4.88 µM (active)

Which AC50 [12] does the source give for COc1ccc(NC(=O)c2ccc(-n3cncn3)c([N+](=O)[O-])c2)cc1OC here?
The AC50 was 2.2 µM (active).

What does the source list for COC(=O)c1c(NC(=O)C2COc3ccccc3O2)sc2c1CCN(C(=O)OC)C2 (stereo unspecified)?
IC50 (Melanocortin receptor 4): > 64.6 µM (inactive); IC50 [4]: > 64.6 µM (inactive)

Which AC50 [13] does the source give for COc1ccc(NC(=O)N[C@@H]2CC[C@@H](CCn3cc(-c4ccccn4)nn3)O[C@H]2CO)cc1 here?
The AC50 was 82.2 µM (active).

With CC(C)(C)OC(=O)N/N=C/c1ccc(N2CCOCC2)s1 as the molecule, how does the IC50 (Large T antigen) read?
The IC50 was 13.2 µM (active).

And the EC50 [14]?
The EC50 was > 99 µM (inactive).

And the EC50 [15]?
Its EC50 is 46.9 µM (inactive).

What about the IC50 [16] of the same molecule?
Its IC50 is 8.28 µM (active).

What about the IC50 [17] of the same molecule?
Its IC50 is 11.9 µM (active).

Which results are given for CCN(CC)c1ccc(C(NC(=O)C(C)C)c2ccc3cccnc3c2O)cc1 (stereo unspecified)?
AC50 (HEK293): 7.26 µM (active); AC50 [18]: 3.72 µM (active); AC50 (Paired box protein Pax-8): 1.09 µM (active)

With C[C@@H]1CN([C@H]2CC[C@](C#N)(c3ccc(F)cc3)CC2)CC[C@]1(C(=O)O)c1ccccc1 [LEVOCABASTINE HYDROCHLORIDE] as the molecule, how does the AC50 [18] read?
Its AC50 is 197 µM (active).
